Data taken from patent US12714094B2, “Cryoprotectant polymers and methods of making and using thereof” (BOARD OF REGENTS, THE UNIVERSITY OF TEXAS SYSTEM, priority 2019, dated 2026).
“Also recorded” adds a separate entry of the source.

Assay: Differential scanning calorimetry of polymer/water and polymer/PBS solutions (ice formation, Tg, phase behavior)
Type: physicochemical
Conditions: 50 wt % aqueous solution
Description: Differential Scanning calorimetry (DSC). DSC was used to determine the Tg of pure polymer and aqueous polymer solutions. PMGS is hygroscopic, so PMGS batches were dried in vacuo for at least four hours prior to sample preparation. Polymer solutions were made by mixing dry PMGS with phosphate buffer solution (PBS) and hand-mixing until a homogeneous solution was achieved. DSC samples were prepared by loading TZero pans with at least 5 mg of each solution and sealing them with hermetic lids to prevent evaporation. DSC samples of pure polymer were typically scanned from −20 to 120° C. four times, and the Tg was determined from the last heating cycle. DSC samples of polymer solutions were cooled to −90 and heated to 20° C., and the Tg was determined on the heating cycle.
Differential scanning calorimetry. For PMGS/water mixtures, 6-8 mg of solution was placed in an aluminum DSC pan. The samples were cooled at 1° C./min to −90° C., held at −90° C. for 1 minute, then heated to 20° C. at 10° C./min. For neat PMGS, the polymer was dried overnight under vacuum, then the polymer was removed from the vacuum and 5-10 mg was immediately transferred to an aluminum DSC pan. The sample was heated to 150° C. at 10° C./min, held for 1 min, then cooled to −10° C. at 10° C./min and held for 1 min. […]

C[S+](C)[O-] [DMSO, dimethyl sulfoxide]
ice formation (in words): No ice formed; also recorded: enough to arrest ice formation in solution
